The structures appear in SMILES notation. Some results are limits rather than exact numbers.

In this assay the test system is production of TNF by monocytes activated with bacterial lipopolysaccharide (LPS). In words: Lipopolysaccharide-activated monocyte TNF production assay. The class given is cell-based. The following applies: Homo sapiens; whole blood monocyte assay (LPS induced TNF release). The procedure, abridged:
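Adherent human PBMC-derived monocytes preincubated 60 min with nine two-fold compound dilutions, then stimulated with E. coli K532 LPS (30 ng/mL in the added medium) for 4 h at 37 °C. Supernatant TNF measured by sandwich ELISA; IC50 is the compound concentration halving TNF production, from second-order polynomial fits.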
By IC50 is commonly meant the concentration that inhibits the measured activity by half. On to `CC[C@H](C)Nc1nncc2cc(-c3cc(C(=O)NC4CC4)ccc3C)ccc12` [Example 298, N-cyclopropyl-4-methyl-3-(1-{[(1S)-1-methylpropyl]amino}phthalazin-6-yl)benzamide], for which the IC50 was at most 5 µM. Then `Cc1ccc(C(=O)NC2CC2)cc1-c1ccc2c(-c3ccc(OC(F)(F)F)cc3)nncc2c1` [Example 245, N-cyclopropyl-4-methyl-3-{1-[4-(trifluoromethoxy)phenyl]phthalazin-6-yl}benzamide], with at most 5 µM. `Cc1ccc(C(=O)NC2CC2)cc1-c1ccc2c(-c3ccccc3)nncc2c1` [Example 250, N-cyclopropyl-4-methyl-3-(1-phenylphthalazin-6-yl)benzamide]: the IC50 is at most 5 µM. Then `Cc1ccc(C(N)=O)cc1-c1ccc2c(-c3ccc(S(N)(=O)=O)cc3C)nncc2c1` [Example 236, 3-{1-[4-(aminosulfonyl)-2-methylphenyl]phthalazin-6-yl}-4-methylbenzamide], with at most 5 µM. Then `Cc1ccc(C(=O)NC2CC2)cc1-c1ccc2c(N3CCN[C@@H](C)C3)nncc2c1` [Example 149, N-cyclopropyl-4-methyl-3-{1-[(3S)-3-methylpiperazin-1-yl]phthalazin-6-yl}benzamide], with at most 5 µM; and `Cc1ccc(C(=O)NC2CC2)cc1-c1ccc2c(-c3ccc(F)cc3)nncc2c1` [Example 239, N-cyclopropyl-3-[1-(4-fluorophenyl)phthalazin-6-yl]-4-methylbenzamide], with at most 5 µM; and `Cc1ccc(C(=O)NC2CC2)cc1-c1ccc2c(C3=CCN(C(=O)OC(C)(C)C)CC3)nncc2c1` [Example 153, tert-butyl 4-(6-{5-[(cyclopropylamino)carbonyl]-2-methylphenyl}phthalazin-1-yl)-3,6-dihydropyridine-1(2H)-carboxylate], with at most 5 µM.

The compound `Cc1ccc(C(=O)NC2CC2)cc1-c1ccc2c(-c3ccc(CC(=O)O)cc3)nncc2c1` [Example 240, [4-(6-{5-[(cyclopropylamino)carbonyl]-2-methylphenyl}phthalazin-1-yl)phenyl]acetic acid] had a concentration for half-maximal inhibition (IC50) of at most 5 µM. Then `Cc1ccc(C(=O)NC2CC2)cc1-c1ccc2c(NC(C)C)nncc2c1` [Example 172, N-cyclopropyl-3-[1-(isopropylamino)phthalazin-6-yl]-4-methylbenzamide], with at most 5 µM; and `Cc1ccccc1-c1nncc2cc(-c3c(C)ccc(C(=N)NC4CC4)c3O)ccc12` [Example 378, N-cyclopropyl-2-hydroxy-4-methyl-3-[1-(2-methylphenyl)phthalazin-6-yl]benzenecarboximidamide], with at most 5 µM.

As to `Cc1ccc(C(=O)NC2CC2)cc1-c1ccc2c(N3CCNC(=O)[C@@H]3C)nncc2c1` [Example 271, N-cyclopropyl-4-methyl-3-{1-[(2S)-2-methyl-3-oxopiperazin-1-yl]phthalazin-6-yl}benzamide], the IC50 was at most 5 µM. Then `Cc1ccc(C(=O)NC2CC2)cc1-c1ccc2c(Cl)nncc2c1` [Example 164, 3-(1-chlorophthalazin-6-yl)-N-cyclopropyl-4-methylbenzamide], with at most 5 µM; and `Cc1ccc(C(=O)NC2CC2)cc1-c1ccc2c(N3C[C@@H](C)N[C@@H](C)C3)nncc2c1` [Example 148, N-cyclopropyl-3-{1-[(3R,5S)-3,5-dimethylpiperazin-1-yl]phthalazin-6-yl}-4-methylbenzamide], with at most 5 µM. Then `Cc1ccc(C(=O)NC2CC2)cc1-c1ccc2c(OC3CCCN(C)C3)nncc2c1` (stereo not shown) [Example 317, N-cyclopropyl-4-methyl-3-{1-[(1-methylpiperidin-3-yl)oxy]phthalazin-6-yl}benzamide], with at most 5 µM. Then `Cc1ccc(C(=O)NC2CC2)cc1-c1ccc2c(N3C[C@H](C)OC[C@H]3C)nncc2c1` [Example 173, N-cyclopropyl-3-{1-[(2S,5R)-2,5-dimethylmorpholin-4-yl]phthalazin-6-yl}-4-methylbenzamide], with at most 5 µM; and `Cc1ccc(Oc2ccc3c(-c4ccccc4Cl)nncc3c2)cc1` [Example 346, 1-(2-chlorophenyl)-6-(4-methylphenoxy)phthalazine], with at most 5 µM; and `Cc1ccc(C(=O)NC2CC2)cc1-c1ccc2c(N)nncc2c1` [Example 141, 3-(1-aminophthalazin-6-yl)-N-cyclopropyl-4-methylbenzamide], with at most 5 µM. In turn, `Cc1ccc(C(=O)NC2CCC2)cc1-c1ccc2c(N(C)C)nncc2c1` [Example 283, N-cyclobutyl-3-[1-(dimethylamino)phthalazin-6-yl]-4-methylbenzamide] yielded an IC50 of at most 5 µM. Then `Cc1ccc(C(=O)NC2CC2)cc1-c1ccc2c(-c3ccc(C(F)(F)F)cc3Cl)nncc2c1` [Example 219, 3-{1-[2-chloro-4-(trifluoromethyl)phenyl]phthalazin-6-yl}-N-cyclopropyl-4-methylbenzamide], with at most 5 µM; and `CNc1noc2c(-c3ccc4c(N5CCOC[C@@H]5C)nncc4c3)c(C)ccc12` [Example 397, N,6-dimethyl-7-(1-((S)-3-methylmorpholino)phthalazin-6-yl)benzo[d]isoxazol-3-amine], with at most 5 µM; and `Fc1ccc(Oc2ccc3c(-c4ccccc4Cl)nncc3c2)cc1` [Example 12, 1-(2-chlorophenyl)-6-(4-fluorophenoxy)phthalazine], with at most 5 µM. Then `O=C(O)Cc1ccc(-c2nncc3cc(Oc4ccc(F)cc4)ccc23)cc1` [Example 348, {4-[6-(4-fluorophenoxy)phthalazin-1-yl]phenyl}acetic acid], with at most 5 µM; and `Cc1cc(F)ccc1-c1nncc2cc(Oc3ccccc3)ccc12` [Example 347, 1-(4-fluoro-2-methylphenyl)-6-phenoxyphthalazine], with at most 5 µM. Then `Cc1ccccc1-c1ccc2c(N3CCOCC3c3ccc(Cl)cc3)nncc2c1` (stereo not shown) [Example 17, 1-(3-(4-chlorophenyl)morpholino)-6-o-tolylphthalazine], with at most 5 µM; and `CNc1ccc(-c2nncc3cc(-c4cc(C(=O)NC5CC5)ccc4C)ccc23)c(OC)n1` [Example 206, N-cyclopropyl-3-{1-[2-methoxy-6-(methylamino)pyridin-3-yl]phthalazin-6-yl}-4-methylbenzamide], with at most 5 µM. `Cc1ccc(C(N)=O)cc1-c1ccc2c(-c3ccc(C(F)(F)F)cc3Cl)nncc2c1` [Example 199, 3-{1-[2-chloro-4-(trifluoromethyl)phenyl]phthalazin-6-yl}-4-methylbenzamide] showed an IC50 of at most 5 µM.

The compound `Cc1ccc(C(N)=O)cc1-c1ccc2c(-c3cc4ccccc4[nH]3)nncc2c1` [Example 216, 3-[1-(1H-indol-2-yl)phthalazin-6-yl]-4-methylbenzamide] came in with an IC50 of at most 5 µM. Then `Cc1ccc(C(N)=O)cc1-c1ccc2c(N3CCCOCC3)nncc2c1` [Example 270, 4-methyl-3-[1-(1,4-oxazepan-4-yl)phthalazin-6-yl]benzamide], with at most 5 µM. For `Cc1ccc(C(=O)NC2CC2)cc1-c1ccc2c(N3CCC[C@H]3C(F)(F)F)nncc2c1` [Example 273, N-cyclopropyl-4-methyl-3-{1-[(2S)-2-(trifluoromethyl)pyrrolidin-1-yl]phthalazin-6-yl}benzamide], the IC50 was at most 5 µM.

In turn, `Cc1ccc(C(=O)NC2CC2)cc1-c1ccc2c(N3CCN4C(=O)CC[C@H]4C3)nncc2c1` [Example 102, 3-{1-[(8aS)-6-oxohexahydropyrrolo[1,2-a]pyrazin-2(1H)-yl]phthalazin-6-yl}-N-cyclopropyl-4-methylbenzamide] came in with an IC50 of at most 5 µM. Then `CC[C@@H](C)Nc1nncc2cc(-c3cc(C(=O)NC4CC4)ccc3C)ccc12` [Example 314, N-cyclopropyl-4-methyl-3-(1-{[(1R)-1-methylpropyl]amino}phthalazin-6-yl)benzamide], with at most 5 µM; and `Cc1ccc(C(=O)NC2CC2)cc1-c1ccc2c(N3CCC4(CC3)OCCO4)nncc2c1` [Example 167, N-cyclopropyl-3-[1-(1,4-dioxa-8-azaspiro[4.5]dec-8-yl)phthalazin-6-yl]-4-methylbenzamide], with at most 5 µM.

On to `Cc1ccc(C(=O)NC2CC2)cc1-c1ccc2c(N3CCNC(=O)C3)nncc2c1` [Example 163, N-cyclopropyl-4-methyl-3-[1-(3-oxopiperazin-1-yl)phthalazin-6-yl]benzamide], for which the IC50 was at most 5 µM. Then `Cc1ccc(C(=O)NC2CC2)cc1-c1ccc2c(-c3ccc(C(C)(C)C)cc3)nncc2c1` [Example 253, 3-[1-(4-tert-butylphenyl)phthalazin-6-yl]-N-cyclopropyl-4-methylbenzamide], with at most 5 µM. Then `CCNC(=O)c1ccc(C)c(-c2ccc3c(CC(C)C)nncc3c2)c1` [Example 361, N-ethyl-3-(1-isobutylphthalazin-6-yl)-4-methylbenzamide], with at most 5 µM; and `Cc1ccc(C(=O)NC2CC2)cc1-c1ccc2c(NC(C)(C)C)nncc2c1` [Example 327, 3-[1-(tert-butylamino)phthalazin-6-yl]-N-cyclopropyl-4-methylbenzamide], with at most 5 µM; and `COc1nncc2cc(-c3cc(C(=O)NC4CC4)ccc3C)ccc12` [Example 169, N-cyclopropyl-3-(1-methoxyphthalazin-6-yl)-4-methylbenzamide], with at most 5 µM.

In the case of `Cc1ccc2c(NC3CC3)noc2c1-c1ccc2c(N3CCOCC3)nncc2c1` [Example 388, N-cyclopropyl-6-methyl-7-(1-morpholin-4-ylphthalazin-6-yl)-1,2-benzisoxazol-3-amine], the IC50 is at most 5 µM. Then `COc1cccc(-c2nncc3cc(-c4cc(C(N)=O)ccc4C)ccc23)c1OC` [Example 198, 3-[1-(2,3-dimethoxyphenyl)phthalazin-6-yl]-4-methylbenzamide], with at most 5 µM. Consider `COc1ccc(-c2nncc3cc(-c4cc(C(=O)NC5CC5)ccc4C)ccc23)c(C)n1` [Example 207, N-cyclopropyl-3-[1-(6-methoxy-2-methylpyridin-3-yl)phthalazin-6-yl]-4-methylbenzamide], for which the IC50 is at most 5 µM.

These data come from patent US7759337B2, “Phthalazine compounds and methods of use” (Amgen Inc., priority 2005, dated 2010).
